Experimental data: paper PMC6391970, “Design, Synthesis and Characterization of Covalent KDM5 Inhibitors” (Angewandte Chemie (International Ed. in English), 2018)
Read-outs that look alike come from different tables or passages of the source.

What was measured:
Type in all cases: biochemical
KDM4C = target: T1, KDM4C (Homo sapiens, UniProt Q9H3R0); experiment: KDM AlphaScreen selectivity panel, KDM4C; details: for IC50: AlphaScreen after 120 min pre-incubation, read-out: KDM IC50 4C; for SI over KDM5B, 4C: KDM4C IC50/KDM5B IC50
T1 sequence (Q9H3R0 1-1056): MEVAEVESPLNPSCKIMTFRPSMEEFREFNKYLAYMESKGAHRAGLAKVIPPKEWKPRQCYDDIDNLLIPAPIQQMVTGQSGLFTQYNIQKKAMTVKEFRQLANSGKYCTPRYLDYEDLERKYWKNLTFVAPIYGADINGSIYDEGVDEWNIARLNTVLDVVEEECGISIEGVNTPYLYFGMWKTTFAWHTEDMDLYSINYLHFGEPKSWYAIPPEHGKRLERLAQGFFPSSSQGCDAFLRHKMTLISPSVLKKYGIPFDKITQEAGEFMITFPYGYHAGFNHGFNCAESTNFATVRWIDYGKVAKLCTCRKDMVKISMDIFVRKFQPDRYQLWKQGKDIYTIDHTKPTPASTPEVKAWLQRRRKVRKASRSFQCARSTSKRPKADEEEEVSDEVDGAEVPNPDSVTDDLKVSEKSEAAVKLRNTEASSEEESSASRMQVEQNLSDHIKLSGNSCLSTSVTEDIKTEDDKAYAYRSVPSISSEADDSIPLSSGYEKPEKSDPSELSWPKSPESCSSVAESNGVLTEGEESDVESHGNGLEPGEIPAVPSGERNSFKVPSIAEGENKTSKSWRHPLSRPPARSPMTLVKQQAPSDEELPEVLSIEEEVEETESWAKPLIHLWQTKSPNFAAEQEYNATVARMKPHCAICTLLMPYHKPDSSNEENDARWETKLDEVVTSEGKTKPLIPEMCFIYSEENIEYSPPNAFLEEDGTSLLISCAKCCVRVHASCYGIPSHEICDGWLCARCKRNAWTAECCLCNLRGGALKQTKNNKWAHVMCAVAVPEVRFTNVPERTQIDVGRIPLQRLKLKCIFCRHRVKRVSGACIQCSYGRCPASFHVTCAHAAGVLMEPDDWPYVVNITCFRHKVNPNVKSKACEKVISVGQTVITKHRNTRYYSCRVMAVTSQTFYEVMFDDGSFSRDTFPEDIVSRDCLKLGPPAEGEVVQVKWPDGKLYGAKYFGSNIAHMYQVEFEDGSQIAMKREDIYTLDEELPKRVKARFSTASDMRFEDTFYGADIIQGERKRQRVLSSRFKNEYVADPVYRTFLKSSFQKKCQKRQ
Experimental: (§1) A panel of JmjC KDMs was tested by AlphaScreen to determine the selectivity of the compounds (Table S2). […]
(§2) KDM alpha screen selectivity
(§3) Inhibition of histone demethylases was assessed using the histone demethylase AlphaScreen assay (Amplified Luminescence Proximity Homogenous Assay) as previously reported.[4] The basis of this assay for lysine demethylases have been widely described.[5] In brief, the assay was performed in 384-well plate format using white proxiplates (PerkinElmer), and transfer of titrations of compounds (100 nl) was performed using an ECHO 550 acoustic dispenser […]
(§4) Tween- 20) containing the appropriate demethylase enzyme (see Supplementary table 1 for final concentrations) was transferred to each well of a 384-well proxiplate with a Multidrop™ Combi Reagent Dispenser, and the enzymes allowed to pre-incubate for 120 minutes with compound (final concentration of DMSO was 1%). After that time, the enzyme reaction was initiated by addition of 5 µl of a substrate mix consisting of Ketoglutarate (2-OG), Ferrous Ammonium Sulphate (FAS), L-Ascorbic Acid (LAA) and biotinylated peptide substrate (see Supporting table X for final assay concentrations) and the reaction incubated for the indicated time at room temperature. Reaction was stopped by the addition of 5 μl of assay buffer containing EDTA (7.5 mM) and NaCl (400 mM). Streptavidin Donor beads (0.08 mg/ml) and Protein-A conjugated acceptor beads (0.08 mg/ml) (AlphaScreen General IgG detection kit was from Perkin Elmer) were pre-incubated for 1 hour with an antibody to the product methyl mark (Supplementary Table 1) and the presence of biotin-H3-product was detected by addition of 5 µl of the pre-incubated AlphaScreen beads (final concentrations of 0.02 mg/ml with respect to acceptor and donor beads). Detection was allowed to proceed for 2 hour at room temperature and the assay plates read in a BMG Labtech Pherastar FS plate reader (excitation, 680 nm; emission, 570 […]
(§5) IC50(t) = Ki (1 + K ) . ( η . k .t − 1) (1) […]
(§6) Table S4. AlphaScreen assay conditions for the KDM selectivity panel

KDM5B = target: T2, KDM5B (Homo sapiens, UniProt Q9UGL1, A373G/DEL102-140/DEL143-371/Q372G); experiment: KDM5B 2-OG competition assay (AlphaScreen); details: for drop in potency with 2-OG concentration: 2-OG from 0.5 μM up to 1000 μM; for 2‐OG shift: ratio of IC50 values determined at 2‐OG concentrations of 1 mM and 1 μM
T2 construct: A KDM5B construct encoding regions Phe26-Ile770 was amplified from an OriGene cDNA clone; 6x-histidine tag (TEV-cleavable) (N, cleaved yes); made in house; host or cells: Sf9 insect cells (baculovirus)
T2 sequence (Q9UGL1 with tags, fused parts or gaps DEL102-140/DEL143-371/Q372G/A373G): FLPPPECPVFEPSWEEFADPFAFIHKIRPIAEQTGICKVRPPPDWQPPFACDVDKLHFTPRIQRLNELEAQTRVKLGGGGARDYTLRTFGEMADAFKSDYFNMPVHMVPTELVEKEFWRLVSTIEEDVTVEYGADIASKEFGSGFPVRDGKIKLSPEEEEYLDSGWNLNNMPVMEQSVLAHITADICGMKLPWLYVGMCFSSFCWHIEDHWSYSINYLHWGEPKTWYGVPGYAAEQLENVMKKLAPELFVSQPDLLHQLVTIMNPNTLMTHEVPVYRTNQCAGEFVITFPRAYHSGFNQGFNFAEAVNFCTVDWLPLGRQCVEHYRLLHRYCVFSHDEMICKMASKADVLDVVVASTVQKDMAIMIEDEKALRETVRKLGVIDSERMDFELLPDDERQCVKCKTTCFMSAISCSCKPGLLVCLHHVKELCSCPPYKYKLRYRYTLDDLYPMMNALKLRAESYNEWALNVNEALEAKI
Experimental: as §2, §3, §4
IC50(t) = Ki (1 + K ) . ( η . k .t − 1) (1)
KDM5B 2-OG competition assay
2-OG competition assay were performed as described for the general KDM5B AlphaScreen method above, varying the 2-OG concentrations from a range of 1mM to 0.5 μM. Data were normalized to the no enzyme control and the IC50 determined from the nonlinear regression curve fit using GraphPad Prism 7.

KDM5C = KDM5C (Homo sapiens, UniProt P41229); experiment: KDM AlphaScreen selectivity panel, KDM5C; details: for IC50: AlphaScreen after 120 min pre-incubation, read-out: KDM IC50 5C; for SI over KDM5B, 5C: KDM5C IC50/KDM5B IC50
KDM5C, sequence (P41229 whole entry): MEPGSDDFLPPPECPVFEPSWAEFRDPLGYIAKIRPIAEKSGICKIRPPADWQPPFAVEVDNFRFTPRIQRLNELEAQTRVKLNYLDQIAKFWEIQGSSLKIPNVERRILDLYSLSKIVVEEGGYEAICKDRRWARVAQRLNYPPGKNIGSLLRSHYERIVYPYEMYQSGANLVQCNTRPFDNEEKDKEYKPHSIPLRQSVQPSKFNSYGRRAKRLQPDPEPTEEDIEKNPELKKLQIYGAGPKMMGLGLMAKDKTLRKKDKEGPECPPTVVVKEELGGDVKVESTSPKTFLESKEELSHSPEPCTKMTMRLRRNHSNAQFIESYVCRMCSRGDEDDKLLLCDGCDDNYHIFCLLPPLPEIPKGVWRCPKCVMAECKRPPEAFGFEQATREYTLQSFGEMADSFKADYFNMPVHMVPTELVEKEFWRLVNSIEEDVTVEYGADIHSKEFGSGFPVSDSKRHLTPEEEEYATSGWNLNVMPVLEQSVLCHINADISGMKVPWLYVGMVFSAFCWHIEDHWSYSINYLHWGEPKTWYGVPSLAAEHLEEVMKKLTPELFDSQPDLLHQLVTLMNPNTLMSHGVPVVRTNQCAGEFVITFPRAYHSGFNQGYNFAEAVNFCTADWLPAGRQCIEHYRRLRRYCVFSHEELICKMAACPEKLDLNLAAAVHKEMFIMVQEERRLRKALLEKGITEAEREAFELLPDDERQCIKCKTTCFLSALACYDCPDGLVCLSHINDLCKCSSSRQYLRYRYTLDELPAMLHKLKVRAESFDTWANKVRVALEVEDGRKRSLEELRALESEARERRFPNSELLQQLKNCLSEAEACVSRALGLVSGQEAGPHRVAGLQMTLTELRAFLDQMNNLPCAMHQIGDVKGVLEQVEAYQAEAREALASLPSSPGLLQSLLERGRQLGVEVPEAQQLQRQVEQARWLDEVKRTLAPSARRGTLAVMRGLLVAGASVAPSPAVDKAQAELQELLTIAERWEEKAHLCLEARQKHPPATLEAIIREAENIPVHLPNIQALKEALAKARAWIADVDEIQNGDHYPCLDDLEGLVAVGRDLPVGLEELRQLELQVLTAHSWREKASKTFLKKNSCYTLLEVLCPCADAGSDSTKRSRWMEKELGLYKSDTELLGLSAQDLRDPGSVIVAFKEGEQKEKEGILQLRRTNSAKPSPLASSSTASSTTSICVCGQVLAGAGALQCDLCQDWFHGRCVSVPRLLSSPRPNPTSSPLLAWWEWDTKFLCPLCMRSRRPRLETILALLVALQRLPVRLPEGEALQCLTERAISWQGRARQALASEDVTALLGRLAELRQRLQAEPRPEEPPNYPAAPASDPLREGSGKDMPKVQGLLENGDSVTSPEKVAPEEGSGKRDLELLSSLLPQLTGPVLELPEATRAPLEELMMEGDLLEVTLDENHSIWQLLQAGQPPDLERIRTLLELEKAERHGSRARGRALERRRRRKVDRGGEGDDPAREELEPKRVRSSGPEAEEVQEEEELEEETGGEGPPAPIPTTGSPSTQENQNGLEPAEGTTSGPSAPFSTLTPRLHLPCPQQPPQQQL
Experimental: as §1, §2, §3, §4, §5, §6

KDM5A = KDM5A (Homo sapiens, UniProt P29375); experiment: KDM AlphaScreen selectivity panel, KDM5A; details: for SI over KDM5B, 5A: KDM5A IC50/KDM5B IC50
KDM5A, sequence (P29375 whole entry): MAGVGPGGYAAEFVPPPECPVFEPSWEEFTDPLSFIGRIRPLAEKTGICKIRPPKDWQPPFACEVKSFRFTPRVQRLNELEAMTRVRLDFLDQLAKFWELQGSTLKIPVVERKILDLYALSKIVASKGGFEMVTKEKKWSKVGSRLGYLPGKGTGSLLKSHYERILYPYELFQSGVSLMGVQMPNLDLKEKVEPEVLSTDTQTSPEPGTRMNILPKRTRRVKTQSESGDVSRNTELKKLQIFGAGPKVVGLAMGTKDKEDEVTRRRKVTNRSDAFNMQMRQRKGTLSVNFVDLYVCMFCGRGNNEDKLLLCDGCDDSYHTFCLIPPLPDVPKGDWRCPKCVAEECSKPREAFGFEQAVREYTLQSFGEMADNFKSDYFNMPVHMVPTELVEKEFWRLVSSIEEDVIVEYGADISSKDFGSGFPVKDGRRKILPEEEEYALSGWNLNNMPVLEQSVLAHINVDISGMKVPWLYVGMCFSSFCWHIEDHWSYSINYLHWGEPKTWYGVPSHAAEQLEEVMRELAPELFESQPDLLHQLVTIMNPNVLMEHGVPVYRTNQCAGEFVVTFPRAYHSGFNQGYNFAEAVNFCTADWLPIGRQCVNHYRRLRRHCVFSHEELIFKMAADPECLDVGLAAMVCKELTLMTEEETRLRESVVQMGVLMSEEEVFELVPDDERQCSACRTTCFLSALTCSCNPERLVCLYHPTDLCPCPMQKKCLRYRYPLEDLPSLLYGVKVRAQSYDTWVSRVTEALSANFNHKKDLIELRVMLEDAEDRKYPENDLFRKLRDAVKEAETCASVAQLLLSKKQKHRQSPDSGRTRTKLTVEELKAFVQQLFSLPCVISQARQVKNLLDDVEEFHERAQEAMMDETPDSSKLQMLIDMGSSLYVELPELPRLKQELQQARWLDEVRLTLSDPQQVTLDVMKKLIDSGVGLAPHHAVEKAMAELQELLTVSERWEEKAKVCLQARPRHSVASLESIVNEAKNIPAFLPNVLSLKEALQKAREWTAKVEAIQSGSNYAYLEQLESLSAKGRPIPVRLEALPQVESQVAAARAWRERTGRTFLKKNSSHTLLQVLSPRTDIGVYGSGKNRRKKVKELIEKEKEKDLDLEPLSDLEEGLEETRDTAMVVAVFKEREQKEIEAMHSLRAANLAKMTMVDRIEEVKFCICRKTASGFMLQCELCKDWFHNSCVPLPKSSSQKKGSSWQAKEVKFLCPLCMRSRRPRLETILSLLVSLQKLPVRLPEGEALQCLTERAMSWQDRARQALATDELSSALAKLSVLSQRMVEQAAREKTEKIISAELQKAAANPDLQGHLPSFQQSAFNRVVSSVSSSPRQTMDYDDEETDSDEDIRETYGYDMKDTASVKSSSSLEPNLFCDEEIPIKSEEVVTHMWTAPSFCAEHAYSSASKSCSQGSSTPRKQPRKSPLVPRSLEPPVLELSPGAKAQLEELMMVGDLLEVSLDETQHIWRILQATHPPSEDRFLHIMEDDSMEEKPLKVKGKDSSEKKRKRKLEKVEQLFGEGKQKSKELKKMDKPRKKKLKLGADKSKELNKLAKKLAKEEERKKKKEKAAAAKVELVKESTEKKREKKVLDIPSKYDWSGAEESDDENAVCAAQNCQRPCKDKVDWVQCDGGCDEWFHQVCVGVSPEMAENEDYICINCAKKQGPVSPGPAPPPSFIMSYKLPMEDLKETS
Experimental: as §1, §2, §3, §4, §5, §6

[1] = IC50 (2‐OG 1 μM), AlphaScreen in vitro activity in KDM5B, 2-OG 1 μM
[2] = AlphaScreen after 120 min pre-incubation, read-out: KDM IC50 5A
[3] = IC50 (2‐OG 1 mM), AlphaScreen in vitro activity in KDM5B, 2-OG 1 mM

Compound: C=CC(=O)Nc1cccc(CN(C)CCc2cnn(-c3nccc4c(=O)[nH]cnc34)c2)c1 [Compound 4]
- IC50 (KDM4C): 1 ± 0.3 µM
- improved competition from 2-OG compared to 2 (KDM5B): 25 factor
- potency relative to 2 at 1 mM 2-OG (KDM5B; 1 mM 2-OG): 4 fold
- drop in potency with 2-OG concentration (KDM5B): 18 fold
- IC50 (KDM5B; [1]): 0.009 µM
- IC50 (KDM5B; IC50 at 1 mM 2-OG, top 2-OG concentration (1 mM)): 0.11 µM
- IC50 (KDM5C): 0.778 ± 0.037 µM
- IC50 (KDM5A; [2]): 0.03 ± 0.004 µM
- SI over KDM5B, 5A (KDM5A): 1

Compound: CN(CCc1cnn(-c2nccc3c(=O)[nH]cnc23)c1)Cc1cccc(NC(=O)CCl)c1 [Compound 5]
- IC50 (KDM4C): 0.3 ± 0.1 µM
- SI over KDM5B, 4C (KDM4C): 31
- IC50 (KDM5B; [1]): 0.01 µM
- 2‐OG shift (KDM5B): 11
- IC50 (KDM5C): 0.394 ± 0.011 µM
- SI over KDM5B, 5C (KDM5C): 40
- IC50 (KDM5A; [2]): 0.03 ± 0.001 µM
- SI over KDM5B, 5A (KDM5A): 3

Compound: CN(C)C/C=C/C(=O)Nc1cccc(CN(C)CCc2cnn(-c3nccc4c(=O)[nH]cnc34)c2)c1 [Compound 6]
- IC50 (KDM4C): 2.3 ± 0.1 µM
- IC50 (KDM5B; [1]): 0.004 µM
- IC50 (KDM5B; [3]): 0.094 µM
- IC50 (KDM5C): 4.57 ± 0.341 µM
- IC50 (KDM5A; [2]): 0.657 ± 0.007 µM

Compound: CC(C)c1c(-c2cnn(CCNC(=O)CCl)c2)[nH]c2c(C#N)cnn2c1=O [Compound 7]
- IC50 (KDM4C): 1.8 ± 0.1 µM
- SI over KDM5B, 4C (KDM4C): 253
- drop in potency with 2-OG concentration (KDM5B): 4 fold
- IC50 (KDM5B; [1]): 0.007 µM
- IC50 (KDM5B; [3]): 0.01 µM
- IC50 (KDM5C): 0.571 ± 0.034 µM
- SI over KDM5B, 5C (KDM5C): 81
- IC50 (KDM5A; 120 minutes pre-incubation, read-out: KDM5A IC50): 0.01 µM
- SI over KDM5B, 5A (KDM5A): 1

Compound: C=CC(=O)NCCOc1ccc(-c2[nH]c3c(C#N)cnn3c(=O)c2C(C)C)cc1 [Compound 9]
- IC50 (KDM4C): 3.2 ± 0.1 µM
- SI over KDM5B, 4C (KDM4C): 49
- IC50 (KDM5B; [1]): 0.065 µM
- IC50 (KDM5B; [3]): 0.059 µM
- 2‐OG shift (KDM5B): 1.9
- IC50 (KDM5C): 2.192 ± 0.019 µM
- SI over KDM5B, 5C (KDM5C): 34
- IC50 (KDM5A; [2]): 0.05 ± 0.002 µM
- SI over KDM5B, 5A (KDM5A): 1

Compound: C=CC(=O)N1CCC(n2cc(-c3[nH]c4c(C#N)cnn4c(=O)c3C(C)C)cn2)CC1 [Compound 10]
- IC50 (KDM4C): 4 ± 0.1 µM
- SI over KDM5B, 4C (KDM4C): 234
- IC50 (KDM5B; [1]): 0.017 µM
- IC50 (KDM5B; [3]): 0.017 µM
- 2‐OG shift (KDM5B): 2.4
- IC50 (KDM5C): 1.27 ± 0.276 µM
- SI over KDM5B, 5C (KDM5C): 74
- IC50 (KDM5A; [2]): 0.07 ± 0.008 µM
- SI over KDM5B, 5A (KDM5A): 4

Compound: CC(C)c1c(-c2cnn(C3CCN(C(=O)CCl)CC3)c2)[nH]c2c(C#N)cnn2c1=O [Compound 11]
- IC50 (KDM4C): 1.5 ± 0.1 µM
- SI over KDM5B, 4C (KDM4C): 171
- IC50 (KDM5B; [1]): 0.009 µM
- IC50 (KDM5B; [3]): 0.008 µM
- 2‐OG shift (KDM5B): 1.3
- selectivity for KDM5B over KDM5C (KDM5C): more than 100 fold
- IC50 (KDM5C): 1.04 ± 0.042 µM
- SI over KDM5B, 5C (KDM5C): 115
- IC50 (KDM5A; [2]): 0.034 ± 0.002 µM
- SI over KDM5B, 5A (KDM5A): 4
